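Where inhibition never reached the appropriate level, the endpoint shown equals the highest concentration tested. Otherwise, values were interpolated linearly from a five-concentration, 48-hour dose response in 96-well plates. GI50 is the concentration that inhibits growth by half.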 The source made the active and inactive calls. No stated cut-off is given here; in the data, active = GI50 up to about 1.1 µM and inactive = higher.
What was measured:
Assay in all cases: growth of human tumour cells (NCI), 48 h
A549 = test system: A549
CCRF-CEM = test system: CCRF-CEM
COLO 205 = test system: COLO 205
HOP-92 = test system: HOP-92
M14 = test system: M14
MDA-MB-231 = test system: MDA-MB-231
MOLT-4 = test system: MOLT-4
NCI-H23 = test system: NCI-H23
NCI/ADR-RES = test system: NCI/ADR-RES
OVCAR-3 = test system: OVCAR-3
OVCAR-8 = test system: OVCAR-8
PC-3 = test system: PC-3
SF-295 = test system: SF-295
SK-MEL-28 = test system: SK-MEL-28
SK-OV-3 = test system: SK-OV-3
UACC-257 = test system: UACC-257
UO-31 = test system: UO-31
NCI-H522 = test system: NCI-H522
SNB-19 = test system: SNB-19
RXF 393 = test system: RXF 393

Measured: GI50

CC1(C)CC2C(C1=O)C1(C)CCCC2(C)C1=O (centres undefined)
inactive: A549 > 100 µM | CCRF-CEM > 100 µM | COLO 205 > 100 µM | HOP-92 > 100 µM | M14 > 100 µM | MDA-MB-231 > 100 µM | MOLT-4 > 100 µM | NCI-H23 > 100 µM | NCI/ADR-RES > 100 µM | OVCAR-3 > 100 µM | OVCAR-8 > 100 µM | PC-3 > 100 µM | SF-295 > 100 µM | SK-MEL-28 > 100 µM | SK-OV-3 > 100 µM | UACC-257 > 100 µM | UO-31 > 100 µM

CN(C)CCNC(=O)c1nc([N+](=O)[O-])cn1C
inactive: A549 > 100 µM | CCRF-CEM > 100 µM | COLO 205 > 100 µM | HOP-92 > 100 µM | M14 > 100 µM | MDA-MB-231 > 100 µM | MOLT-4 > 100 µM | NCI-H23 > 100 µM | NCI-H522 > 100 µM | NCI/ADR-RES > 100 µM | OVCAR-3 > 100 µM | OVCAR-8 > 100 µM | PC-3 > 100 µM | SF-295 > 100 µM | SK-MEL-28 > 100 µM | SK-OV-3 > 100 µM | SNB-19 > 100 µM | UACC-257 > 100 µM | UO-31 > 100 µM

COC(=O)C1=C(O)C(C(=O)OC)[C@]2(O)[C@H](C(=O)OC)[C@H]1C[C@@H](c1cccc(OC)c1)[C@H]2C(=O)OC (some centres undefined)
inactive: A549 23.6 µM | COLO 205 46.1 µM | HOP-92 47 µM | M14 29.7 µM | MDA-MB-231 27.2 µM | MOLT-4 20.4 µM | NCI-H23 30.4 µM | NCI-H522 6.1 µM | NCI/ADR-RES 29.4 µM | OVCAR-8 31.6 µM | RXF 393 18.8 µM | SF-295 35.8 µM | SK-MEL-28 37.6 µM | SK-OV-3 28.2 µM | SNB-19 25.9 µM | UACC-257 37.7 µM | UO-31 13.9 µM

C(#C[C@@]12CCC[C@@H]1N(Cc1ccccc1)CO2)c1ccc2c(c1)OCO2
inactive: A549 > 100 µM | CCRF-CEM > 100 µM | COLO 205 > 100 µM | M14 > 100 µM | MDA-MB-231 > 100 µM | MOLT-4 > 100 µM | NCI-H23 > 100 µM | NCI/ADR-RES > 100 µM | OVCAR-3 > 100 µM | OVCAR-8 > 100 µM | PC-3 > 100 µM | RXF 393 > 100 µM | SF-295 > 100 µM | SK-MEL-28 > 100 µM | SK-OV-3 > 100 µM | SNB-19 > 100 µM | UACC-257 > 100 µM | UO-31 > 100 µM

COc1ccc2c3c([nH]c2c1)CCN(Cc1ccccc1)C3
inactive: A549 62.1 µM | CCRF-CEM 34.3 µM | COLO 205 18.7 µM | HOP-92 4.35 µM | M14 16.2 µM | MDA-MB-231 28.9 µM | MOLT-4 24.8 µM | NCI-H23 42.3 µM | NCI/ADR-RES 31.5 µM | OVCAR-8 48.3 µM | RXF 393 18.3 µM | SF-295 11.5 µM | SK-MEL-28 18.8 µM | SK-OV-3 > 100 µM | SNB-19 21.4 µM | UACC-257 19.6 µM | UO-31 12.4 µM

COc1cc([N+](=O)[O-])c(S(=O)(=O)O)cc1-n1nc(C(=O)Nc2ccccc2)n[n+]1-c1cc(S(=O)(=O)[O-])c([N+](=O)[O-])cc1OC
inactive: A549 > 100 µM | CCRF-CEM > 100 µM | COLO 205 > 100 µM | HOP-92 > 100 µM | M14 > 100 µM | MOLT-4 > 100 µM | NCI-H23 > 100 µM | NCI-H522 > 100 µM | NCI/ADR-RES > 100 µM | OVCAR-3 > 100 µM | OVCAR-8 > 100 µM | PC-3 > 100 µM | SF-295 > 100 µM | SK-MEL-28 > 100 µM | SK-OV-3 > 100 µM | SNB-19 > 100 µM | UACC-257 > 100 µM | UO-31 > 100 µM

O=[N+]([O-])c1ccc(O)c(/C=N/CC2CCCN3CCCCC23)c1 (centres undefined)
inactive: A549 91.4 µM | COLO 205 24.2 µM | M14 19.6 µM | MDA-MB-231 88.1 µM | NCI-H23 46.7 µM | NCI-H522 26 µM | NCI/ADR-RES 20.7 µM | OVCAR-3 31 µM | OVCAR-8 30.8 µM | PC-3 57.1 µM | RXF 393 23 µM | SF-295 31.2 µM | SK-OV-3 29.6 µM | SNB-19 25.1 µM | UACC-257 32.5 µM | UO-31 34.8 µM

CN(Cc1c[n+]([O-])c2nc(N)nc(N)c2n1)c1ccc(C(=O)NC23CC4CC(CC(C4)C2)C3)cc1
inactive: CCRF-CEM 28.6 µM | COLO 205 > 100 µM | M14 > 100 µM | MDA-MB-231 98.9 µM | MOLT-4 32.7 µM | NCI-H23 > 100 µM | NCI/ADR-RES > 100 µM | OVCAR-3 > 100 µM | OVCAR-8 > 100 µM | PC-3 89.7 µM | RXF 393 31.2 µM | SF-295 > 100 µM | SK-MEL-28 23.1 µM | SK-OV-3 > 100 µM | SNB-19 92.7 µM | UACC-257 > 100 µM | UO-31 > 100 µM

Cc1ccc(-n2nnc(C(N)=O)c2O)cc1
inactive: A549 > 100 µM | CCRF-CEM > 100 µM | COLO 205 > 100 µM | M14 > 100 µM | MDA-MB-231 > 100 µM | MOLT-4 > 100 µM | NCI-H23 > 100 µM | NCI-H522 > 100 µM | NCI/ADR-RES > 100 µM | OVCAR-3 > 100 µM | OVCAR-8 > 100 µM | PC-3 > 100 µM | RXF 393 > 100 µM | SF-295 > 100 µM | SK-MEL-28 > 100 µM | SK-OV-3 > 100 µM | SNB-19 > 100 µM | UACC-257 > 100 µM | UO-31 > 100 µM

CCCCNC(=S)Nc1nc(C(=O)NNC(=S)NCC)cs1
inactive: A549 > 100 µM | CCRF-CEM 44 µM | COLO 205 62.5 µM | M14 > 100 µM | MDA-MB-231 99.8 µM | MOLT-4 50.4 µM | NCI-H23 > 100 µM | NCI-H522 > 100 µM | NCI/ADR-RES 26.5 µM | OVCAR-3 44 µM | OVCAR-8 > 100 µM | PC-3 > 100 µM | SF-295 > 100 µM | SK-OV-3 > 100 µM | UACC-257 > 100 µM | UO-31 31.6 µM

COC1(C(C)(C)C)C=C(C(C)(C)C)P(=O)(O)O1 (centres undefined)
inactive: A549 > 100 µM | COLO 205 > 100 µM | HOP-92 > 100 µM | M14 > 100 µM | NCI-H23 > 100 µM | NCI-H522 > 100 µM | NCI/ADR-RES > 100 µM | OVCAR-3 > 100 µM | OVCAR-8 > 100 µM | PC-3 > 100 µM | SF-295 > 100 µM | SK-MEL-28 > 100 µM | SK-OV-3 > 100 µM | SNB-19 > 100 µM | UACC-257 > 100 µM
